Measurements: patent US20100210667A1, “IMIDAZO [1, 2-C] PYRIMIDIN-2-YLMETHYLPIPERIDINES AS OREXIN RECEPTOR ANTAGONISTS” (priority 2007, published 2010)
Ends that are not written are not given here.

Target: T1, human cloned orexin-1 receptor (alanine at position 280) (Homo sapiens, UniProt O43613)
T1 construct: expressed in transfected cells
T1 sequence (O43613 1-425): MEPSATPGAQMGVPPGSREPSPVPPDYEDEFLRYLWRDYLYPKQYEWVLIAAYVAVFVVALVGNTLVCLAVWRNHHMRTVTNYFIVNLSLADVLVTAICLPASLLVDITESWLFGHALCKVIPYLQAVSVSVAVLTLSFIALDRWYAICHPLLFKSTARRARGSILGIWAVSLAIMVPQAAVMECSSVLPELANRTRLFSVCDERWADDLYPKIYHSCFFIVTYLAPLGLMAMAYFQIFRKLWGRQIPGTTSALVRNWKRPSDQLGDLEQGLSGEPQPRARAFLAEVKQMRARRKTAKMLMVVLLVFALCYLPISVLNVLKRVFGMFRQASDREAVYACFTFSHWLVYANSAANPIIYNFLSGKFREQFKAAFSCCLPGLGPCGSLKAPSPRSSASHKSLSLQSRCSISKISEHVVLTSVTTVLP
Assay: Antagonist affinity at human orexin-1 receptor using FLIPR ([Ca2+]i, CHO cells)
Assay type: cell-based
Details: hOrexin A at EC80, IC50 converted to functional pKi by modified Cheng-Prusoff, read-out: fpKi at the human cloned orexin-1 receptor
Description: Determination of ANTAGONIST AFFINITY at Human Orexin-1 and 2 Receptors Using FLIPR
Adherent Chinese Hamster Ovary (CHO) cells, stably expressing the recombinant human Orexin-1 or human Orexin-2 receptors or Rat Basophilic Leukaemia Cells (RBL) stably expressing recombinant rat Orexin-1 or rat Orexin-2 receptors were maintained in culture in Alpha Minimum Essential Medium (Gibco/Invitrogen, cat. no.; 22571-020), supplemented with 10% decomplemented foetal bovine serum (Life Technologies, cat. no. 10106-078) and 400 μg/mL Geneticin G418 (Calbiochem, cat. no.345810). Cells were grown as monolayers under 95%:5% air:CO2 at 37° C.
The sequences of the human orexin 1, human orexin 2, rat orexin 1 and rat orexin 2 receptors used in this example were as published in Sakurai, T. et al (1998) Cell, 92 pp 573 to 585, with the exception that the human orexin 1 receptor sequence used had the amino acid residue alanine at position 280 and not glycine as reported in Sakurai et al.
Cells were seeded into black clear-bottom 384-well plates (density of 20,000 cells per well) in culture medium as described above and maintained overnight (95%:5% air:CO2 at 37° C.). On the day of the experiment, culture medium were discarded and the cells washed three times with standard buffer (NaCl, 145 mM; KCl, 5 mM; HEPES, 20 mM; Glucose, 5.5 mM; MgCl2, 1 mM; CaCl2, 2 mM) added with Probenecid 2.5 mM. The plates were then incubated at 37° C. for 60 minutes in the dark with 1 μM FLUO-4AM dye to allow cell uptake of the FLUO-4AM, which is subsequently converted by intracellular esterases to FLUO-4, which is unable to leave the cells. After incubation, cells were washed three times with standard buffer to remove extracellular dye and 30 μL of buffer were left in each well after washing.
Compounds of the invention were tested in a final assay concentration range from 1.66×10^−5M to 1.58×10^−11M. Compounds of the invention were dissolved in dimethylsulfoxide (DMSO) at a stock concentration of 10 mM. These stock solutions were serially diluted with DMSO and 1 μL of each dilution was transferred to a 384 well compound plate. Immediately before introducing compound to the cells, buffer solution (50 μl/well) was added to this plate. To allow agonist stimulation of the cells, a stock plate containing a solution of human orexin A (hOrexin A) was diluted with buffer to final concentration just before use. This final concentration of hOrexin A was equivalent to the calculated EC80 for hOrexinA agonist potency in this test system. This value was obtained by testing hOrexinA in concentration response curve (at least 16 replicates) the same day of the experiment.
The loaded cells were then incubated for 10min at 37° C. with test compound. The plates were then placed into a FLIPRTM (Molecular Devices, UK) to monitor cell fluorescence (λex=488 nm, λEM=540 nm) (Sullivan E, Tucker E M, Dale I L. Measurement of [Ca^2+]i, using the fluometric imaging plate reader (FLIPR). In: Lambert D G (ed.), Calcium Signaling Protocols. New Jersey: Humana Press, 1999, 125-136). A baseline fluorescence reading was taken over a 5 to 10 second period, and then 10 μL of EC80 hOrexinA solution was added. The fluorescence was then read over a 4-5 minute period.
Functional responses using FLIPR were measured as peak fluorescence intensity minus basal fluorescence and expressed as a percentage of a non-inhibited Orexin-A-induced response on the same plate. […]

Ki [nM]	Compound
0.631 to 3.98	Cc1nc(C(=O)N2CCCC[C@H]2Cc2cn3cnc(Cl)c(C)c3n2)c(-c2ccccc2)s1 [Example 1, 7-chloro-8-methyl-2-({2S)-1-[(2-methyl-5-phenyl-1,3-thiazol-4-ylcarbonyl]-2-piperidinyl}methyl)imidazo[1,2-c]pyrimidine]
0.631 to 3.98	Cc1nc(C(=O)N2CCCC[C@H]2Cc2cn3cnc(C)c(Cl)c3n2)c(-c2ccccc2)s1 [Example 4, 8-chloro-7-methyl-2-({(2S)-1-[(2-methyl-5-phenyl-1,3-thiazol-4-yl)carbonyl]-2-piperidinyl}methyl)imidazo[1,2-c]pyrimidine]
0.631 to 3.98	Cc1nc(C(=O)N2CCCC[C@H]2Cc2cn3cnc(C)c(C)c3n2)c(-c2ccccc2)s1 [Example 5, 7,8-dimethyl-2-({(2S)-1-[(2-methyl-5-phenyl-1,3-thiazol-4-yl)carbonyl]-2-piperidinyl}methyl)imidazo[1,2-c]pyrimidine]
0.631 to 3.98	Cc1nc(C(=O)N2CCCC[C@H]2Cc2cn3cncc(C)c3n2)c(-c2ccccc2)s1 [Example 2]
0.631 to 3.98	COc1ncn2cc(C[C@@H]3CCCCN3C(=O)c3nc(C)sc3-c3ccccc3)nc2c1C [Example 3, 8-methyl-7-(methyloxy)-2-({(2-S)-1-[(2-methyl-5-phenyl-1,3-thiazol-4-yl)carbonyl]-2-piperidinyl}methyl)imidazo[1,2-c]pyrimidine]

Tested on: food intake
Assay: not given
Details: central administration, freely-feeding rats, 4 hour time period; cited from earlier work

Compound	increase of food intake over control rats receiving vehicle
orexin-A: polypeptide ligand for the orexin-1 receptor, an agonist of the orexin receptors (QPLPDCCRQKTCSCRLYELLHGAGNHAAGILTL; ends and bridges not checked; cysteine pairing not given here; UniProt O43612 34-66, looked up)	approximately four-fold
